Biological target: DNA topoisomerase 2-alpha (Homo sapiens, UniProt P11388)
Test: ChEBML_1696318
Description: Inhibition of recombinant human topoisomerase-2alpha expressed in Saccharomyces cerevisiae JEL1 harboring topoisomerase1 deletion mutant assessed as reduction in enzyme-mediated [gamma32P]ATP hydrolysis using relaxed pBR322 DNA as substrate after 8 mins

Chain of DNA topoisomerase 2-alpha (P11388 whole entry): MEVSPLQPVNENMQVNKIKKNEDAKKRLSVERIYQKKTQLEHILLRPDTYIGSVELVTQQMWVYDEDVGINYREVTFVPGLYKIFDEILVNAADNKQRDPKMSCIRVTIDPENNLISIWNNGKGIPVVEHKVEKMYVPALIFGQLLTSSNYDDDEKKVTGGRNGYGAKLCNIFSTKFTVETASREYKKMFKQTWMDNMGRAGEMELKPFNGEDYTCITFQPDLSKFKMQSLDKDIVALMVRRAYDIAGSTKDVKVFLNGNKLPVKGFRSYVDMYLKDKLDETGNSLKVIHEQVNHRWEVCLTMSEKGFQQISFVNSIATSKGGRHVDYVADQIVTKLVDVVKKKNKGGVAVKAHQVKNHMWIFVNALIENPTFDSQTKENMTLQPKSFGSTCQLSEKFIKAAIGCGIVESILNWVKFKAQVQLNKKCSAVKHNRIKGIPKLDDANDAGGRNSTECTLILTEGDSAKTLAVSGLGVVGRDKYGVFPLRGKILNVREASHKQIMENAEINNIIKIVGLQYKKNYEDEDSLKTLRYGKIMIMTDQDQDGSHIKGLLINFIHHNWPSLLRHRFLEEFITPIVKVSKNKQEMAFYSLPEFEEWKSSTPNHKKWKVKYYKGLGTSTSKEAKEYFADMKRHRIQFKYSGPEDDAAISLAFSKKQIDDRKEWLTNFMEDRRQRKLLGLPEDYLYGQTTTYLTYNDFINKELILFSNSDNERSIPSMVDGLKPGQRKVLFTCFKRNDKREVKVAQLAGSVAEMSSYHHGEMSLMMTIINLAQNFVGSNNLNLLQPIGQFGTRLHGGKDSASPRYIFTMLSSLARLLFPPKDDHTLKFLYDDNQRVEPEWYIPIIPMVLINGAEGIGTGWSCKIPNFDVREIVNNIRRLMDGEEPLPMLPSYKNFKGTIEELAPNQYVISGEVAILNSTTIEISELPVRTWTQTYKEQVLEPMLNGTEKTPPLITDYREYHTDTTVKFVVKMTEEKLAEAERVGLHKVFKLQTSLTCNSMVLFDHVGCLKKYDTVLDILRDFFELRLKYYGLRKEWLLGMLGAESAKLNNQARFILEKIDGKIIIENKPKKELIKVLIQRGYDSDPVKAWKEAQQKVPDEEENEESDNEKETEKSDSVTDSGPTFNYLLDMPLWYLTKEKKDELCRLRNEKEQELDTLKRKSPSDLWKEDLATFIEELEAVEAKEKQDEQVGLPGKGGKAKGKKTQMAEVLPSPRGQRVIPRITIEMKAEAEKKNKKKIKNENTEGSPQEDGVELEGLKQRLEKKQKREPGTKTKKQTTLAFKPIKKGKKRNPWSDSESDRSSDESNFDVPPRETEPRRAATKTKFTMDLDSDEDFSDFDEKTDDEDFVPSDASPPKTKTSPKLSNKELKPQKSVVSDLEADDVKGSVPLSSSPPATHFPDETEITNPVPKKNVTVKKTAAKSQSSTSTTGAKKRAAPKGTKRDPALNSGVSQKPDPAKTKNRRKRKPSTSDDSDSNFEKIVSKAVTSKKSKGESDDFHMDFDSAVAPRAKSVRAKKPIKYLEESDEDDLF

IC50: 2500 nM
SMILES: NCCCCNCC(O)COc1cc(O)c2c(=O)c3ccccc3oc2c1 (stereo unspecified)

— BindingDB's records for doi:10.1016/j.bmcl.2017.09.011 (Alma Mater Studiorum-University of Bologna, 2017)
